One series is described as follows: in vivo. To be noted: Göttingen, minipig. The method in brief: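 Catheterised mini-pigs received compound i.v. at 10 nmol/kg in pH 4.0 phosphate/NaCl/tween vehicle, or alternatively i.v. or s.c. at 1–30 nmol/kg in pH 8.0 K2HPO4/tween. Stabilised plasma was sampled up to 13 days and assayed by LC-MS (LLOQ 2 nM). Half-life came from non-compartmental analysis of individual animal profiles.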

For another series, the system named is lean C57BL/6 mice. Kind of series: Acute food intake in fasted lean mice (BioDAQ, fasting-induced refeeding). Type of series: in vivo. The settings on record: for Mean cumulative food intake / Mean cumulative food intake [g]: Table 5, Study 6A. As to the method: Acute food intake in mice: Lean C57BL male mice are obtained from Charles River, Japan. They are maintained on a 12:12 light:dark cycle (lights off at 10:00 AM, lights on at 10:00 PM), fed pelleted D12450B rodent diet (Research Diets, Inc., New Brunswick, N.J.), and allowed water ad libitum. The mice arrive at 7-8 weeks of age and are acclimatized in the BioDAQ system a minimum of two weeks prior to study. On the day of study, mice are 9-12 weeks old. They are fasted overnight (20-24 h) with free access to water. The day of the study, mice are dosed with s.c. injection (dose volume=10 mL/kg), returned to their cage, and pre-weighed food is immediately placed in the cage. […] When the mice eat the weight reduction of the content of the food-tray is registered. Data is registered each time there is a change in the weight of the individual food-tray. Cumulative food intake is calculated by subtracting the food weight at each time point from the starting food weight.
Mice were administrated a single dose of the peptides (1 μmol/kg s.c.) 30 min before food return and cumulative food intake was measured over 24 h. […] One way ANOVA was carried for each time point out using the software Graph-Pad Prism, version 5.0. The statistical method used for the data in FIG. 1A was an unpaired t-test using the software Graph-Pad Prism, version 5.0. The statistical method used for the data in FIG. 1B and Table 4 was ANOVA, Dunnetts post hoc. Stars in FIGS. 1A and 1B indicate significance versus the vehicle group *) p<0.05, **) p<0.01, ***) p<0.001.
Fasted lean C57BL/6 mice were administrated a single subcutaneous injection of vehicle or peptide approximately 30 min before food return and the cumulative food intake was measured subsequently. One way ANOVA was carried out for each time point using the software Graph-Pad Prism, version 5.0.

The conditions of series [1]: Adrian T. E. et al, Gut (1978), 19, pp 907-909; cited from earlier work.
The target of the next series is T1, Y4 receptor (Homo sapiens, UniProt P50391).
T1 construct: host or cells: ACTOne HEK-293 cells
T1 sequence (P50391 whole entry): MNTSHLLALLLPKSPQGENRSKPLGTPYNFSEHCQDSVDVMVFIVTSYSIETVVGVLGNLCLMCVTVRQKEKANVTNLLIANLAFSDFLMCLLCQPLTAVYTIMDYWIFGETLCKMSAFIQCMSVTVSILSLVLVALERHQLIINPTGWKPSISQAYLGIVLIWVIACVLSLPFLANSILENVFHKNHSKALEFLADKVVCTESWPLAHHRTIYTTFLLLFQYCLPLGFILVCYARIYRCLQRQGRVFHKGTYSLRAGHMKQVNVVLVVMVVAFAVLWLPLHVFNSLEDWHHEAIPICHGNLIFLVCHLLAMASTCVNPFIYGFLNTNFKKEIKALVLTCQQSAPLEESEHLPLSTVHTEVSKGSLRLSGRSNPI
Kind of series: Y4 receptor ACTOne based FLIPR assay (cAMP biosensor). It is filed as cell-based.

Series [2] deals with T2, Y2 receptor (Homo sapiens, UniProt P49146).
T2 construct: host or cells: ACTOne HEK-293 cells
T2 sequence (P49146 1-381): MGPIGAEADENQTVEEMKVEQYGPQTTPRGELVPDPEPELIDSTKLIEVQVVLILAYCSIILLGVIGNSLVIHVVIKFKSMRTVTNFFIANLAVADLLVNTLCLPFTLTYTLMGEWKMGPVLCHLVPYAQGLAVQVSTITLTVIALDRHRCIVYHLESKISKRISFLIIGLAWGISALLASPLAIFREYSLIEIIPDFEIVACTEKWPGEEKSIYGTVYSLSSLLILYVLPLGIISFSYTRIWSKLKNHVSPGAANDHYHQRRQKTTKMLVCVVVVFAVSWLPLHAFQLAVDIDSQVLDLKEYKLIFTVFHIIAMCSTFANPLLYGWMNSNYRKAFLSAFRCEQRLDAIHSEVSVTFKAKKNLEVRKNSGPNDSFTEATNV
Put plainly: Y2 receptor ACTOne based FLIPR assay (cAMP biosensor). Type of series: cell-based.

In series [3] the target is T3, Y2 receptor (UniProt P49146 1-381, limits assumed).
T3 sequence (looked up): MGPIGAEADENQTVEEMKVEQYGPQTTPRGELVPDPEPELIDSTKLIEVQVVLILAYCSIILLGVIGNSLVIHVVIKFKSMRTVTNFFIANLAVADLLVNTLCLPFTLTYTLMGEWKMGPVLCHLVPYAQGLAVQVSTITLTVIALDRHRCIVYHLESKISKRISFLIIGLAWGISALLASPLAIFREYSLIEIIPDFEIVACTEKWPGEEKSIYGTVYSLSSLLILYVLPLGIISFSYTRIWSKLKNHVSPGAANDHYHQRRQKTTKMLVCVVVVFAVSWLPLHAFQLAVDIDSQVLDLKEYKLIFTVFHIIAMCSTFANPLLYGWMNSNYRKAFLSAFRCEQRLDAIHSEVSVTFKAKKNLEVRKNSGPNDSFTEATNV
Put plainly: cell-based or functional assay.

The source of these data is US20110275559A1, “Long-Acting Y2 and/or Y4 Receptor Agonists” (Novo Nordisk A/S, priority 2008, published 2011).

Like-named read-outs stand apart in the source and are kept apart here. Marks after values point to notes of the source that are not given here. *1 amine or outer side, *2 acyl side, *3 side chain or, on linkers, in order; H or OH if unused. Where a SMILES comes first, the peptide text is derived from it. Where no end group is shown, it is not given here. Side-chain parts run from the residue outwards. The star is where a group is joined. C20 diacid = O=C(O)CCCCCCCCCCCCCCCCCCC(=O)*; C18 diacid = O=C(O)CCCCCCCCCCCCCCCCC(=O)*; γGlu = O=C(O)[C@H](CCC(=O)[*:2])N[*:1]; Trx = NC[C@H]1CC[C@H](C(=O)O)CC1; AEEA = NCCOCCOCC(=O)O

As usually defined, the half-life is the time in which the quantity being followed falls by half. For orientation: EC50 means the concentration that produces a half-maximal response.

Consider `CC[C@H](C)[C@H](NC(=O)[C@H](Cc1ccc(O)cc1)NC(=O)[C@H](CCCNC(=N)N)NC(=O)[C@H](CCCNC(=N)N)NC(=O)[C@H](CC(C)C)NC(=O)[C@H](CC(=O)O)NC(=O)[C@H](C)NC(=O)[C@H](C)NC(=O)[C@H](Cc1ccc(O)cc1)NC(=O)[C@H](CCC(N)=O)NC(=O)[C@H](C)NC(=O)[C@H](CCSC)NC(=O)[C@H](CCC(N)=O)NC(=O)[C@H](CCC(=O)O)NC(=O)[C@@H]1CCCN1C(=O)[C@@H](NC(=O)[C@H](C)NC(=O)[C@H](CC(N)=O)NC(=O)[C@H](CC(=O)O)NC(=O)CNC(=O)[C@@H]1CCCN1C(=O)[C@H](Cc1ccc(O)cc1)NC(=O)[C@@H](NC(=O)[C@@H]1CCCN1C(=O)[C@H](CCC(=O)O)NC(=O)[C@H](CC(C)C)NC(=O)[C@@H]1CCCN1C(=O)[C@H](C)N)C(C)C)[C@@H](C)O)C(=O)N[C@@H](CC(N)=O)C(=O)N[C@@H](CCSC)C(=O)N[C@@H](CC(C)C)C(=O)N[C@H](C(=O)N[C@@H](CCCNC(=N)N)C(=O)N1CCC[C@H]1C(=O)N[C@@H](CCCNC(=N)N)C(=O)N[C@@H](Cc1ccc(O)cc1)C(N)=O)[C@@H](C)O` [SEQ ID NO: 2, hPP(1-36)], for which the half-life in “in vivo” (iv, 15 nmol/kg) was 0.035 h; in “in vivo” (iv, 45 nmol/kg), 0.031 h. For the same molecule, the “time after administration at which the effect in reducing food intake has disappeared” value with lean C57BL/6 mice (Study 6A, fasted lean C57BL/6 mice, 1.0 μmol/kg s.c.) stood at 12 h. In addition, the “Mean cumulative food intake” value with lean C57BL/6 mice (fasted lean C57BL/6 mice, single 1.0 μmol/kg s.c., 4 hours after injection, vehicle 1.51) is on record as 1.18 g; in the series with lean C57BL/6 mice (mice, 1.0 μmol/kg s.c., 12 hours after injection, vehicle 3.49), 3.19 g; in the series on lean C57BL/6 mice (mice, 1.0 μmol/kg s.c., 24 hours after injection, vehicle 4.35) it was 3.87 g; with lean C57BL/6 mice (mice, 1.0 μmol/kg s.c., 36 hours after injection, vehicle 8.41) it was 7.93 g; with lean C57BL/6 mice (mice, 1.0 μmol/kg s.c., 48 hours after injection, vehicle 8.87), 8.56 g. Besides, the “Mean cumulative food intake [g]” value is reported as 1.51** g with lean C57BL/6 mice (mice, 1.0 μmol/kg s.c., 6 hours after injection, vehicle 2.04) and 1.98** g with lean C57BL/6 mice (mice, 1.0 μmol/kg s.c., 8 hours after injection, vehicle 2.61). In addition, the “half-life reported in man” value in series [1] is 7 min.

Consider `CC[C@H](C)[C@H](NC(=O)[C@H](Cc1ccc(O)cc1)NC(=O)[C@H](CCCNC(=N)N)NC(=O)[C@H](CCCNC(=N)N)NC(=O)[C@H](CC(C)C)NC(=O)[C@H](CC(=O)O)NC(=O)[C@H](C)NC(=O)[C@H](C)NC(=O)[C@H](Cc1ccc(O)cc1)NC(=O)[C@H](CCC(N)=O)NC(=O)[C@H](C)NC(=O)[C@H](CC(C)C)NC(=O)[C@H](CCC(N)=O)NC(=O)[C@H](CCC(=O)O)NC(=O)[C@@H]1CCCN1C(=O)[C@@H](NC(=O)[C@H](C)NC(=O)[C@H](CCCCNC(=O)COCCOCCNC(=O)COCCOCCNC(=O)CC[C@H](NC(=O)[C@H]1CC[C@H](CNC(=O)CCCCCCCCCCCCCCCCCCC(=O)O)CC1)C(=O)O)NC(=O)[C@H](CC(=O)O)NC(=O)CNC(=O)[C@@H]1CCCN1C(=O)[C@H](Cc1ccc(O)cc1)NC(=O)[C@@H](NC(=O)[C@@H]1CCCN1C(=O)[C@H](CCC(=O)O)NC(=O)[C@H](CC(C)C)NC(=O)[C@@H]1CCCN1)C(C)C)[C@@H](C)O)C(=O)N[C@@H](CC(N)=O)C(=O)N[C@@H](CC(C)C)C(=O)N[C@@H](CC(C)C)C(=O)N[C@H](C(=O)N[C@@H](CCCNC(=N)N)C(=O)N1CCC[C@H]1C(=O)N[C@@H](CCCNC(=N)N)C(=O)N[C@@H](Cc1ccc(O)cc1)C(N)=O)[C@@H](C)O` [SEQ ID NO: 29, N-epsilon11-[2-(2-{2-[2-(2-{2-[(S)-4-Carboxy-4-({trans-4-[(19-carboxynonadecanoylamino)methyl]cyclohexanecarbonyl}amino)butyrylamino]-ethoxy}ethoxy)acetylamino]ethoxy}ethoxy)acetyl][Lys11,Leu17,Leu30]hPP2-36] (H-PLEPVYPGDK([AEEA-AEEA-γGlu-Trx-C20 diacid])ATPEQLAQYAADLRRYINLLTRPRY-NH2; N-terminus and C-terminus assumed), for which the half-life was 23 h in “in vivo” (in vivo, iv, 1 nmol/kg) and 27 h in “in vivo” (in vivo, iv, 30 nmol/kg). The concentration for a half-maximal effect (EC50) was 2 nM at Y4 receptor and more than 1000 nM at Y2 receptor [2].

Regarding `CC[C@H](C)[C@H](NC(=O)[C@H](Cc1ccc(O)cc1)NC(=O)[C@H](CCCNC(=N)N)NC(=O)[C@H](CCCNC(=N)N)NC(=O)[C@H](CC(C)C)NC(=O)[C@H](CC(=O)O)NC(=O)[C@H](C)NC(=O)[C@H](C)NC(=O)[C@H](Cc1ccc(O)cc1)NC(=O)[C@H](CCC(N)=O)NC(=O)[C@H](C)NC(=O)[C@H](CC(C)C)NC(=O)[C@H](CCC(N)=O)NC(=O)[C@H](CCC(=O)O)NC(=O)[C@@H]1CCCN1C(=O)[C@@H](NC(=O)[C@H](C)NC(=O)[C@H](CC(N)=O)NC(=O)[C@H](CC(=O)O)NC(=O)CNC(=O)[C@@H]1CCCN1C(=O)[C@H](Cc1ccc(O)cc1)NC(=O)[C@@H](NC(=O)[C@@H]1CCCN1C(=O)[C@H](CCC(=O)O)NC(=O)[C@H](CC(C)C)NC(=O)[C@@H]1CCCN1)C(C)C)[C@@H](C)O)C(=O)N[C@@H](CC(N)=O)C(=O)N[C@@H](CC(C)C)C(=O)N[C@@H](CC(C)C)C(=O)N[C@H](C(=O)N[C@@H](CCCCNC(=O)COCCOCCNC(=O)COCCOCCNC(=O)CC[C@H](NC(=O)CCCCCCCCCCCCCCCCC(=O)O)C(=O)O)C(=O)N1CCC[C@H]1C(=O)N[C@@H](CCCNC(=N)N)C(=O)N[C@@H](Cc1ccc(O)cc1)C(N)=O)[C@@H](C)O` [SEQ ID NO: 41, N-epsilon33-[2-(2-{2-[2-(2-{2-[(S)-4-Carboxy-4-(17-carboxyheptadecanoylamino)butyrylamino]ethoxy}ethoxy)acetylamino]-ethoxy}ethoxy)acetyl][Leu17,Leu30,Lys33]hPP2-36] (H-PLEPVYPGDNATPEQLAQYAADLRRYINLLTK([AEEA-AEEA-γGlu-C18 diacid])PRY-NH2), the half-life was 105 h in “in vivo” (iv, […]) and 93 h in the series “in vivo” (male, sc, […]). Also, the EC50 is more than 1000 nM on Y4 receptor (Table 2, PP analogues, ACTOne HEK-293 cells, read-out: Y4 cAMP EC50) and more than 1000 nM at Y2 receptor [2] (Table 2, PP analogues, ACTOne HEK-293 cells, read-out: Y2 cAMP EC50).

{C20 diacid-Trx-γGlu-AEEA-AEEA}-NRYYASLRHYLNLVTRQRY (ends and bridges not checked): the “Y2 cAMP EC50” value with Y2 receptor [3] was 97 nM.
